Like-named read-outs stand apart in the source and are kept apart here.
How the values were obtained:
[1] = system: basal serum prolactin levels; assay: Lowering basal serum prolactin levels in the male rat (prolactin secretion inhibition); assay type: in vivo; conditions: lowering basal serum prolactin levels, male rat, after 4 hours; read-out: ID50 after 4 hours
Text: Many of the above mentioned compounds are published as prolactin secretion inhibitors, some of which are extremely potent and have long lasting activity. The potency of the compounds as prolactin secretion inhibitors can be determined in standard tests, e.g. by lowering basal serum prolactin levels in the male rat.
Results with representative compounds include:-

[2] = system: splenic lymphocytes forming lytic antibodies to the SRBC; assay: Antibody producing cell development in the mouse (PFC test), plaque forming cells to SRBC; assay type: in vivo
Method: These methods permit the quantitation of the number of splenic lymphocytes forming lytic antibodies to the SRBC and the distinction between IgM and IgG producing cells.
The intravenous injection of SRBC (5 x 10⁷) in 0.2 ml i.v. served as the primary immunization antigen source in the mouse studies. The mice in these studies were female C57 black of ca 20 grams body weight. All animals were pretreated with the respective compounds for one day prior to the SRBC treatment and daily treated thereafter at 11.00 h for a total of 6 days. The spleens were removed for the determination of PFC numbers to the SRBC antigen.
The spleen cells were suspended in Hepes-buffered Balanced Salt Solution (HBSS), washed once, and resuspended in a volume adjusted according to the expected number of plaque forming cells. The direct quantitiation of IgM-PFC was performed by plaquing 0.1 ml of the diluted splenic cells with 0.025 ml of SRBC (30%), 0.3 ml Agar (0.5% in HBSS), and 0.025 ml complement (guinea pig serum) and plated on Petri dishes. An indirect method of IgG-PFC quantitation was performed with a monoclonal antibody to the IgM (1:4 dilution) plus an anti-gama polyspecific antiserum (1:800) to permit complement fixation. The splenic lymphocytes from each mouse spleen were plated to quantitate IgM- and IgG-PFC in duplicate. All plates were incubated for 4 hours at 37°C and then stored overnight in humidified chambers at 4°C. Plaques were counted by hand with the use of a plaque counter.

[3] = system: Local graft versus host (GvH); assay: Local graft versus host (GvH) reaction in the rat, lymph node weight; assay type: in vivo
Method: Spleen cells (ca 1 x 10⁷) are taken from 6 week old Wistar/Furth/(W/F) rats and are injected into the left hind paw of female (F 344 x WF) F1 rats weighing about 100 g. The rats had been treated daily with the compound from 7 days before the injection and are treated daily for 3 days thereafter. The difference in weight between the left and right lymph nodes is taken as the parameter for evaluating the reaction.

[4] = Acute toxicity (LD50) in the mouse; conditions: in vivo; for LD50 at 168 h: iv, over 7 days, read-out: acute LD₅₀ (mouse) i.v.; for LD50 at 336 h: po, over 14 days, read-out: acute LD₅₀ (mouse) p.o.
Text: (§1) Toxicity data for some of the comounds of the invention have been published. Such data may be determined by routine experimentation. TOXICITY DATA for representative compounds NTEL = No toxic effect level.

[5] = No toxic effect level (NTEL), repeated oral dosing in rats; conditions: rat, in vivo, 4 weeks, p.o.
Text: as §1

[6] = system: grafted neonatal heart tissue; assay: Grafting of neonatal heart tissue into ears of mice, graft survival with co-administered cyclosporine; assay type: in vivo, mouse; conditions: 0.05 mg/kg/day s.c. with cyclosporine 18 mg/kg/day s.c.; group of 10 animals
Text: In this in-vivo test the rejection time of grafted neonatal heart tissue was increased by the compounds of the invention.
In one method a small incision was made at the base of the ear of a C 57 BL mouse (H-2^b). Blunt or fine tweezers were used to loosen the dorsal layer of skin from the cartilaginous layer in order to form a pocket. One half of a heart taken from 1 to 2 day old Balb/c mouse (H-2^d) was then inserted in the pocket. At 6 days post grafting and every week thereafter, the heart graft survival was monitored with microelectrodes placed on each side of the graft. A dynograft recorded was used to record electrical activity emanating from the graft. The end point of graft survival was taken as the time when the electrical activity was lost. Untreated mice rejected the implant after 8 1/2 days.
In this model effective immunosuppression was considered to have occurred if the time to rejection was increased to at least 17 days. […] With the compound A at 0.05 mg/kg/day, s.c.), 50 per cent of the heart allografts in a group of 10 animals were active on day 17.

[7] = target: 5-HT sensitive adenylate cyclase; assay: Activation of 5-HT sensitive adenylate cyclase of the liver fluke (method of Markstein); assay type: biochemical; conditions: adenylate cyclase stimulated by serotonin
Text: A group of compounds comprises compounds which are D₂ agonists without any antagonistic activity. Another group of compounds includes those compounds which are serotonin agonists, e.g. as indicated in standard in vitro binding tests and by activation of 5-HT sensitive adenylate cyclase of the liver fluke according to the method of R.Markstein, Neurochemical effects of some ergot derivatives: A basis for their antiparkinson actions. J.Neural transm 51:39, (1981).
Examples of such compounds include compound C and pergolide. Compound C, pergolide and 5-HT have efficacies of 90,80 and 100 respectively and pD₂ [log EC₅₀] of 6.9, 6.9 and 7.7 respectively in this test on adenylate cyclase stimulated by serotonin.

[8] = system: immuno-responsiveness of effector lymphocytes to histoincompatible (allogenic) lymphocytes; assay: Mixed lymphocyte reaction test in mice, 2nd variant (both strains treated, ex vivo 3H-thymidine incorporation); conditions: at least 7 days
Method: The compounds furthermore inhibit the immuno-responsiveness of effector lymphocytes to histoincompatible (allogenic) lymphocytes in a variante of the above two way MLR (mixed lymphocyte reaction) test.
Mice of two histo-incompatible strains (Balb/c and CBA) (6-8 weeks old) were once daily treated s.c. with a compound of the invention for at least 7 days. The spleens are removed 3 hours after the last drug administration. The MLR test is effected with 0.5 x 10⁶ spleen cells from Balb/c mice and 0.5 x 10⁶ spleen cells from CBA mice the latter having been irradiated with 2000 rad. The spleen cells of the Balb-c mice are incubated with the allogenic CBA-spleen cells for 4 days. Radioactive thymidine is added and after 16 hours the incorporation of ³H-thymidine in the DNA of the mouse spleen cells was measured.

[9] = system: ornithine decarboxylase (ODC); assay: Biosynthetic rate in the rat: ornithine decarboxylase activity in tissues after Complete Freund's adjuvant; assay type: in vivo; conditions: Freund's adjuvant treated rats
Method: The marker used in this study to determine the biosynthetic rate of the lymphoid and endocrine tissues was ornithine decarboxylase (ODC). ODC, the rate-limiting enzyme in polyamine biosynthesis, serves as a early marker of G₁ cell cycle progression of proliferating tissues and increased biosynthesis in secretory tissues, in response to trophic or stimulatory substances. There is a peak activity of ODC subsequent to stimulation in vivo within 4 hours - making this enzyme a useful intracellular marker for understanding the relationship between agonists and target tissue response. The ODC activity of lymphoid tissues appears to relate to a functional response to the immune system.
In a typical test method KFM male rats (150 - 175 g) were treated with the compound of the invention one day prior to the administration of Complete Freund's adjuvant in analogous manner to that described above. Administration of the compound was repeated once time per day afterwards. Two days later the animals were decapitated, the tissues removed and frozen in liquid nitrogen. The ODC activities (pmol/30 min./mg protein) are measured. The ODC activity was determined by measuring the liberation of 14CO₂ from L-(1-14C)-ornithine as described by Snyder et al Proc.Natl.Acad.Sci.60:1420, 1968.

[10] = No toxic effect level (NTEL) / tolerability, repeated oral dosing in dogs; conditions: dog, in vivo, p.o.
Text: as §1

[11] = system: lymphocyte responsiveness to allogenic stimulation; assay: Mixed lymphocyte reaction test in mice, 1st variant (responder mice treated, ex vivo 3H thymidine incorporation); conditions: 5 mg/kg s.c., five days
Method: The ability of the compounds of the invention to reduce lymphocyte responsiveness to allogenic stimulation is measured in the mixed lymphocyte reaction test (MLR) wherein irradiated allogenic cells from stimulator mice induce a proliferative response in responder histo-incompatible cells.
Responder mice (Balb/c female, 8-10 weeks old) are treated sub-cutaneously for five days with the compounds of the invention. Equal numbers of murine stimulator lymphocytes (from stimulator, CBA, mice; lymphocytes irradiated in vitro with 200 R) and effector lymphocytes from the treated animals or control animals are incubated for five days. The 3H thymidine incorporated into lymphocyte DNA was used as a parameter for cell proliferation in response to an allogenic stimulus. [See S.S.Rich et al, J.Exp.Medicine, (1974), 140, 1588-1693].

[12] = combination: 36 mg/kg/day s.c. of Cyclosporine with 0.1 mg/kg/day of compound A

## CCCN1CC(NS(=O)(=O)N(CC)CC)CC2Cc3c(O)cccc3CC21 (centres unmarked) [Compound A]
[1]
  ED50: 0.03 mg/kg
[2]; Mus musculus, Splenic lymphocyte, sc, 144 h, Test A, 1.0 mg/kg/day s.c., 6 days, read-out: IgG % of control
  percent change from control at 1 mg/kg/day: -71.6%
[2]; Mus musculus, Splenic lymphocyte, sc, 144 h, Test A, 1.0 mg/kg/day s.c., 6 days, read-out: IgM % of control
  percent change from control at 1 mg/kg/day: -55.4%
[2]; [12]
  reduction of IgG titre: 79.1%
  reduction of IgM titre: 62.6%
[3]; 0.01 mg/kg/day, control ca 63 mg
  Weight lymph node: ca 50 mg
[3]; 0.01 mg/kg/day, versus control ca 63 mg
  Percentage Difference: -21%
[4]
  LD50 at 168 h: 17 mg/kg
  LD50 at 336 h: 357 mg/kg
[5]
  NOAEL at 672 h: 0.2 to 0.57 mg/kg/day
[6]
  heart allografts active on day 17: 50 per cent

## CCCN1C[C@@H](NS(=O)(=O)N(CC)CC)C[C@@H]2c3cccc4[nH]cc(c34)C[C@H]21 [Compound C, 6-n-propyl-8α-(N,N,-diethylsulphamoylamino)-ergoline-I]
[1]
  ED50: 0.001 mg/kg
[7]
  pD₂ [log EC₅₀]: 6.9
[2]; Mus musculus, Splenic lymphocyte, po, Test B, 0.01 mg/kg/day p.o., read-out: IgM % of control
  percent change from control at 0.01 mg/kg/day: -49%
[2]; Mus musculus, Splenic lymphocyte, po, Test B, 0.1 mg/kg/day p.o., read-out: IgM % of control
  percent change from control at 0.1 mg/kg/day: -26%
[2]; Mus musculus, Splenic lymphocyte, po, Test B, 1 mg/kg/day p.o., read-out: IgM % of control
  percent change from control at 1 mg/kg/day: -1%
[2]; Test B, 0.01 mg/kg/day p.o.
  IgM (PFC x 10^3 per spleen): 167.2 PFC x 10^3 per spleen
[2]; Test B, 0.1 mg/kg/day p.o.
  IgM (PFC x 10^3 per spleen): 244.4 PFC x 10^3 per spleen
[2]; Test B, 1 mg/kg/day p.o.
  IgM (PFC x 10^3 per spleen): 327.0 PFC x 10^3 per spleen
[2]; combination: Cyclosporine 60 mg/kg/day p.o. and Compound C 0.1 mg/kg/day p.o.
  reduction of IgM titre: 63%
[8]; 0.05 mg/kg s.c. once daily
  Change from control: -71%
[8]; 0.5 mg/kg s.c. once daily
  Change from control: -50%
[8]; 5 mg/kg s.c. once daily
  Change from control: -20%
[3]; 0.001 mg/kg/day, control ca 33 mg
  Weight lymph node: 24 mg
[3]; 0.001 mg/kg/day, versus control ca 33 mg
  Percentage Difference: -28%
[3]; 0.01 mg/kg/day, control ca 33 mg
  Weight lymph node: 19 mg
[3]; 0.01 mg/kg/day, versus control ca 33 mg
  Percentage Difference: -42%
[3]; 0.1 mg/kg/day, control ca 33 mg
  Weight lymph node: 18 mg
[3]; 0.1 mg/kg/day, versus control ca 33 mg
  Percentage Difference: -45%
[9]; 0.01 mg/kg
  ODC activities, Adrenal Medulla: 17.10 pmol/30 min./mg protein
  ODC activities, Anterior Pituitary: 32.60 pmol/30 min./mg protein
  ODC activities, Bone Marrow: 17.40 pmol/30 min./mg protein
  ODC activities, Lymph Nodes: 43.10 pmol/30 min./mg protein
  ODC activities, Spleen: 12.14 pmol/30 min./mg protein
  ODC activities, Thymus: 98.80 pmol/30 min./mg protein
[9]; 0.1 mg/kg
  ODC activities, Adrenal Medulla: 180.0 pmol/30 min./mg protein
  ODC activities, Anterior Pituitary: 33.70 pmol/30 min./mg protein
  ODC activities, Bone Marrow: 45.80 pmol/30 min./mg protein
  ODC activities, Lymph Nodes: 107.30 pmol/30 min./mg protein
  ODC activities, Spleen: 34.62 pmol/30 min./mg protein
  ODC activities, Thymus: 171.40 pmol/30 min./mg protein
[9]; 0.5 mg/kg
  ODC activities, Adrenal Medulla: 95.0 pmol/30 min./mg protein
  ODC activities, Anterior Pituitary: 41.20 pmol/30 min./mg protein
  ODC activities, Bone Marrow: 43.40 pmol/30 min./mg protein
  ODC activities, Lymph Nodes: 103.90 pmol/30 min./mg protein
  ODC activities, Spleen: 37.96 pmol/30 min./mg protein
  ODC activities, Thymus: 177.0 pmol/30 min./mg protein
[4]
  LD50 at 168 h: 45 mg/kg
  LD50 at 336 h: 69 mg/kg
[5]
  NOAEL at 672 h: 0.19 mg/kg/day
[10]; no toxic effect level, 4 weeks, read-out: NTEL (4 weeks) dogs
  NOAEL at 672 h: 0.2 mg/kg/day

## Cc1[nH]c2cccc3c2c1C[C@@H]1[C@@H]3C[C@H](NC(=O)C(C)(C)C)CN1C [Compound E, (5R,8S,10R)-2,6-dimethyl-8α-pivaloylamino-ergoline]
[11]; 3H thymidine incorporation
  dpm x 10^3/10 cells ± SD: 103218 ± 21497 dpm x 10^3/10 cells
[11]; Mus musculus, Lymphocyte, sc, 120 h, read-out: inhibited the response
  inhibition at 5 mg/kg: ~21%
[3]; 5 mg/kg/day, control ca 55 mg
  Weight lymph node: ca 39 mg
[3]; 5 mg/kg/day, versus control ca 55 mg
  Percentage Difference: -41%
[10]; over 4 weeks, Beagle dogs, read-out: Well tolerated dose
  NOAEL at 672 h: ≥ 3 mg/kg/day
